Measurements: patent publication US20230330151A1, “COMPOSITION FOR PROMOTING DIFFERENTIATION OF NEURAL STEM CELLS INTO DOPAMINERGIC NEURONS” (CHA UNIVERSITY INDUSTRY-ACADEMIC COOPERATION FOUNDATION, priority 2020, published 2023)

Assays:
[1] = system: FMD-NSPCs (fetal midbrain derived neural stem/progenitor cells); assay: Differentiation of neural stem cells into dopaminergic neurons, immunochemical staining for TH and Tuj1; format: cell-based, human; details: FIG. 3; FA: 0.1 mM; over time of differentiation
FMD-NPCs = assay: Differentiation rate by subculture number, TH expression measured by fluorescence intensity; format: cell-based, human; details: FIG. 11; as the cells were subcultured
Text: For each group, neural stem cells (A) subcultured less than 10 times, (B) subcultured 10 or more times and 20 or less times, (C) subcultured 20 or more times were used to compare average values, to compare and analyze differentiation rates according to a subcultured number.

CCCCc1ccc(C(=O)O)nc1 [FA alone, 5-butylpicolinic acid]
Tuj1 expression [1]: increased over time | expression of TH [1]: decreased over time | rate of differentiation into TH (FMD-NPCs): gradually decreased
